One data set relates to PDE4. Nature of the data set: Cell Based Assay for PDE4 Inhibition: cAMP elevation in whole U937 cells. To be noted: 1 μM PGE1, normalized over PGE1. How it is done: Cell Based Assay for PDE4 Inhibition:
cAMP elevation studies were conducted in whole U937 cells. U937 cells (ATCC) were grown in RPMI medium containing 10% FBS, 1% pen-strep solution, 1% L-glutamine for 48 hrs. On the day of assay, the cells were washed twice with plain RPM1 medium by centrifuging at 800 rpm for 5 mins. Cells were resuspended in plain RPM1 medium followed by cell number and viability assessment using a trypan blue stain. Cells (0.15-0.2 mio cells per well) were seeded in a 96 well microtitre plate and incubated with various drugs/DMSO vehicle at 37° C. for 15 min. cAMP generation was started by addition of 1 μM PGE1 for 15 mins. The incubation was terminated by addition of cell lysis buffer from cAMP estimation kit. Lysate was used for cAMP quantitatin by chemiluminescence method (DiscoveRX kits). cAMP values were normalized over PGE1. EC50 values were calculated from dose response curves by nonlinear regression analysis using PRISM software.

The target of another data set is PDE4 enzyme. Nature of the data set: Inhibition of Phosphodiesterase Enzymes (PDE4), [3H]cAMP hydrolysis. Format: biochemical. Particulars: PDE4 enzyme, 1 μM cAMP and 3H cAMP, 34° C.; read-out: IC50. Here is the method:
Inhibition of Phosphodiesterase Enzymes (PDE4)
In this assay, PDE4 enzyme converts [^3H] cAMP to the corresponding [^3H] 5′-AMP in proportion to the amount of PDE4 present The [^3H] 5′-AMP then was quantitatively converted to free [^3H] adenosine and phosphate by the action of snake venom 5′-nucleotidase.
The assay was performed with modification of the method of Thompson and Appleman (Biochemistry; 1971; 10; 311-316) and Schwartz and Passoneau (Proc. Natl. Acad. Sci. U.S.A. 1974; 71; 3844-3848), both references incorporated herein by reference in their entirety, at 34° C. In a 200 ul total reaction mixture, the reaction mixture contained 12.5 mM of Tris, 5 mM MgCl2, 1 μM cAMP (cold) and ^3H cAMP (0.1 uCi), (Amersham). […] Drug samples were then added in the reaction mixture (25 μl/tube). The assay was initiated by addition of enzyme mix (75 μl) and the mixture was incubated for 20 minutes at 34° C. The reaction was stopped by boiling the tubes for 2 mins at 100° C. in a water bath. After cooling on ice for 5 minutes and addition of 50 ug/reaction of 5′-nucleotidase snake venom from Crotalus atrox incubation was carried out again for 20 min. at 34° C. The unreacted substrate was separated from (^3H) Adenosine by addition of Dowex AG 1-X8 (Biorad Lab), (400 ul) which was prequilibrated (1:1:1) in water and ethanol. Reaction mixture was then thoroughly mixed, placed on ice for 15 minutes, vortexed and centrifuged at 14,000 r.p.m. for 2 mins. After centrifugation, a sample of the supernatant was taken and added in 24 well optiplates containing Scintillant (1 ml) and mixed well. The samples in the plates were then determined for radioactivity in a Top Counter and the PDE4 activity was estimated. PDE4 enzyme was present in quantities that yield <30% total hydrolysis of substrate (linear assay conditions).
Results were expressed as percent inhibition (IC50) in nM concentrations. The IC50 values were determined from the concentration curves by nonlinear regression analysis.
The IC50 value for the compound examined was determined from concentration-response curves in which varying range of concentrations were considered as shown in table 1

Structures are written as SMILES.

One may read the EC50 as the concentration that produces a half-maximal response. A lower EC50 goes with higher potency in that assay. In general, melting point refers to the temperature of the solid-liquid transition. A word on the IC50: it is the midpoint of a concentration-inhibition curve.

Regarding `COc1ccc(C(=O)Nc2c(Cl)c[n+]([O-])cc2Cl)c2c1oc1ccccc12` [Example 2, N-(3,5-dichloropyrid-4-yl)-4-methoxy dibenzo[b,d]furan-1-carboxamide-N1-oxide], the melting point was in the range of 265 to 270 °C. This compound also gave an EC50 with PDE4 of 23.8 nM.
For the compound `COc1ccc(C(=O)Nc2cc[n+]([O-])cc2)c2c1oc1ccccc12` [Example 4, N(pyrid-4-yl)-4-methoxy dibenzo[b,d]furan-1-carboxamide-N1-oxide], the IC50 on PDE4 enzyme is 20.2 nM. The EC50 in the data set with PDE4 was over 300 nM.
Turning to `COc1ccc(C(=O)Nc2cccnc2Cl)c2c1oc1ccccc12` [Example 5, N-(2-chloropyrid-3-yl)-4-methoxy dibenzo[b,d]furan-1-carboxamide], the melting point turned out to be 192 °C. At PDE4 enzyme, the IC50 is 336 nM.
`COc1ccc(C(=O)Nc2cccnc2)c2c1oc1ccccc12` [Example 7, N-(pyrid-3-yl)-4-methoxy dibenzo[b,d]furan-1-carboxamide] registered a melting point of 226 °C. Further, the IC50 on PDE4 enzyme was determined as 26 nM.
Consider `COc1ccc(C(=O)Nc2c(Cl)cncc2Cl)c2c1oc1ccc(C(F)(F)F)cc12` [Example 9, N-(3,5-dichloropyrid-4-yl)-4-methoxy-8-trifluoromethyl dibenzo[b,d]furan-1-carboxamide], for which the IC50 on PDE4 enzyme stood at 1.56 nM. In the data set on PDE4, this compound had an EC50 of 17.6 nM.
For `COc1ccc(C(=O)Nc2c(Cl)c[n+]([O-])cc2Cl)c2c1oc1ccc(C(F)(F)F)cc12` [Example 10, N-(3,5-dichloropyrid-4-yl)-4-methoxy-8-trifluoromethyl dibenzo[b,d]furan-1-carboxamide-N1-oxide], at PDE4 enzyme, the IC50 was found to be 1.68 nM. In the data set with PDE4, this compound registered an EC50 of 117 nM.
With `COc1ccc(C(=O)Nc2ccncc2)c2c1oc1ccc(C(F)(F)F)cc12` [Example 11, N(pyrid-4-yl)-4-methoxy-8-trifluoromethyl dibenzo[b,d]furan-1-carboxamide], at PDE4 enzyme, the IC50 was determined as 9.14 nM. In the data set on PDE4, this compound returned an EC50 of over 220 nM.
On to `O=C(Nc1c(Cl)cncc1Cl)c1ccc(OC(F)F)c2oc3ccc(C(F)(F)F)cc3c12` [Example 12, N-(3,5-dichloropyrid-4-yl)-4-difluoromethoxy-8-trifluoromethyl dibenzo[b,d]furan-1-carboxamide], for which the melting point turned out to be 228 °C. The IC50 at PDE4 enzyme is 1.21 nM. The EC50 in the data set with PDE4 amounted to 140 nM.
On to `O=C(Nc1c(Cl)c[n+]([O-])cc1Cl)c1ccc(OC(F)F)c2oc3ccc(C(F)(F)F)cc3c12` [Example 13, N-(3,5-dichloropyrid-4-yl)-4-difluoromethoxy-trifluoromethyl dibenzo[b,d]furan-1-carboxamide-N1-oxide], for which the IC50 on PDE4 enzyme amounted to 2.54 nM. This compound also yielded an EC50 in the data set with PDE4 of 128 nM.
As for `O=C(Nc1ccncc1)c1ccc(OC(F)F)c2oc3ccc(C(F)(F)F)cc3c12` [Example 14, N-(pyrid-4-yl)-4-difluoromethoxy-8-trifluoromethyl dibenzo[b,d]furan-1-carboxamide], the melting point was 228 °C. Also, the IC50 on PDE4 enzyme is 6.41 nM.
For `O=C(Nc1cccnc1)c1ccc(OC(F)F)c2oc3ccc(C(F)(F)F)cc3c12` [Example 16, N-(pyrid-3-yl)-4-difluoromethoxy-8-trifluoromethyl dibenzo[b,d]furan-1-carboxamide], the melting point is 235 to 236 °C.
As for `O=C(Nc1ccccn1)c1ccc(OC(F)F)c2oc3ccc(C(F)(F)F)cc3c12` [Example 18, N-(pyrid-2-yl)-4-difluoromethoxy-8-trifluoromethyl dibenzo[b,d]furan-1-carboxamide], the melting point is 169 to 170 °C.
On to `O=C(Nc1c(Cl)cncc1Cl)c1ccc(OC(F)F)c2oc3ccccc3c12` [Example 19, N-(3,5-dichloropyrid-4-yl)-4-difluoromethoxy dibenzo[b,d]furan-1-carboxamide], for which the melting point was determined as 270 °C. Besides, the IC50 at PDE4 enzyme turned out to be 2.54 nM. In addition, in the data set with PDE4, the EC50 was 20.4 nM.
For the compound `O=C(Nc1ccc(Cl)cn1)c1ccc(OC(F)F)c2oc3ccccc3c12` [Example 24, N-(5-chloropyrid-2-yl)-4-difluoromethoxy dibenzo[b,d]furan-1-carboxamide], the melting point is 155 to 157 °C.
Consider `O=C(Nc1c(Cl)cncc1Cl)c1ccc(OCC2CC2)c2oc3ccccc3c12` [Example 25, N-(3,5-dichloropyrid-4-yl)-4-cyclopropylmethoxy dibenzo[b,d]furan-1-carboxamide], for which the melting point came out at 242 °C. Also, the IC50 at PDE4 enzyme was 111 nM.
As for `O=C(Nc1c(Cl)cncc1Cl)c1ccc(OCc2ccccc2)c2oc3ccccc3c12` [Example 37, N-(3,5-dichloropyrid-4-yl)-4-benzyloxy dibenzo[b,d]furan-1-carboxamide], the melting point was 269 to 270 °C (dec.).
For `COc1ccc(C(=O)Nc2c(Cl)cncc2Cl)c2c1oc1ccc([N+](=O)[O-])cc12` [Example 38, N-(3,5-dichloropyrid-4-yl)-4-methoxy-8-nitro dibenzo[b,d]furan-1-carboxamide], the IC50 at PDE4 enzyme turned out to be 2.85 nM. Besides, a half-maximal response in the data set with PDE4 (EC50) required 87.9 nM.
Take `COc1ccc(C(=O)Nc2c(Cl)cncc2Cl)c2c1oc1ccc(Cl)cc12` [Example 41, N-(3,5-dichloropyrid-4-yl)-4-methoxy-8-chloro-dibenzo[b,d]furan-1-carboxamide]: the melting point came out at 300 °C. Moreover, the IC50 at PDE4 enzyme is 0.839 nM. Moreover, in the data set with PDE4, the midpoint of the response, the EC50, lay at 200 nM.
Consider `COc1ccc(C(=O)Nc2c(Cl)cncc2Cl)c2c1oc1ccc(Br)cc12` [Example 42, N-(3,5-dichloropyrid-4-yl)-4-methoxy-8-bromo-dibenzo[b,d]furan-1-carboxamide], for which the melting point stood at 308 °C. The IC50 at PDE4 enzyme was determined as 4.92 nM. Also, the EC50 in the data set on PDE4 is 44.2 nM.
Consider `COc1ccc(C(=O)Nc2c(Cl)cncc2Cl)c2c1oc1ccc(I)cc12` [Example 45, N-(3,5-dichloropyrid-4-yl)-4-methoxy-8-iodo-dibenzo[b,d]furan-1-carboxamide], for which the melting point was 304 °C (dec.). The IC50 on PDE4 enzyme was 4.54 nM. Moreover, the EC50 in the data set with PDE4 is over 300 nM.
`COc1c(C(=O)Nc2c(Cl)cncc2Cl)ccc2c1oc1ccccc12` [Example 52, N-(3,5-dichloropyrid-4-yl)-4-methoxy dibenzo[b,d]furan-3-carboxamide]: the melting point was 176 °C (dec.).
`COc1ccc(S(=O)(=O)Nc2c(Cl)cncc2Cl)c2c1oc1ccccc12` [Example 54, N-(3,5-dichloropyrid-4-yl)-4-methoxy dibenzo[b,d]furan-1-sulfonamide] yielded a melting point of 242 to 244 °C.
For `COc1ccc(C(=O)Nc2c(Cl)cncc2Cl)c2c1oc1ccc(N)cc12` [Example 55, N-(3,5-dichloropyrid-4-yl)-4-methoxy-8-amino-dibenzo[b,d]furan-1-carboxamide], the melting point is 249 °C (dec.). Moreover, the 50% inhibitory concentration (IC50) on PDE4 enzyme came out at 1.2 nM. The compound also registered an EC50 with PDE4 of 47.5 nM.
As to `O=C(Nc1c(Cl)c[n+]([O-])cc1Cl)c1ccc(OC(F)F)c2oc3ccccc3c12` [Example 56, N-(3,5-dichloropyrid-4-yl)-4-difluoromethoxy-dibenzo[b,d]furan-1-carboxamide-N-oxide], the IC50 at PDE4 enzyme worked out at 2.85 nM. The same compound gave an EC50 in the data set on PDE4 of 49.2 nM.
For `COc1ccc(C(=O)Nc2c(Cl)cncc2Cl)c2c1oc1ccc(C#N)cc12` [Example 57, N-(3,5dichloropyrid-4-yl)-4-methoxy-8-cyano-dibenzo[b,d]furan-1-carboxamide] the same measures were 1.74 nM and 73.7 nM.
Compound `COc1ccc(S(=O)(=O)Nc2c(Cl)cccc2Cl)c2c1[nH]c1ccccc12` [Example 77, N4-(2,6-Dichlorophenyl)-1-methoxy-9H-4-carbazolsulphonamide] yielded a melting point of 201 to 205 °C.
`O=C(Nc1c(Cl)cncc1Cl)c1ccc(OC(F)F)c2oc3ccc(N4CCCC4=O)cc3c12` [Example 121, N-(3,5-dichloropyrid-4-yl)-4-difluoromethoxy-8-(pyrrolidine-2-one-1-yl)-dibenzo[b,d]furan-1-carboxamide]: at PDE4 enzyme, the IC50 was determined as 21.5 nM.

For the origin of these results see patent US7238725B2, “Tricyclic compounds useful for the treatment of inflammatory and allergic disorders: process for their preparation and pharmaceutical compositions containing them” (Glenmark Pharmaceuticals Ltd., priority 2002, dated 2007).
